Measurements reported in ChEMBL document CHEMBL1201862, “PubChem BioAssay data set” (2004).
Several values for one entry are separate records, joined by “and”; a condition that tells them apart may be missing. Identical values can stand only once. Activity calls are given as the source filed them.

biological target: Cytochrome P450 2C19 (Homo sapiens, UniProt P33261); experiment: Cytochrome panel assay with activity outcomes. Panel member name: p450-cyp2c19 Compounds with AC50 equal or less than 10 uM are considered active; format: functional; conditions: not given
Sequence (P33261 whole entry): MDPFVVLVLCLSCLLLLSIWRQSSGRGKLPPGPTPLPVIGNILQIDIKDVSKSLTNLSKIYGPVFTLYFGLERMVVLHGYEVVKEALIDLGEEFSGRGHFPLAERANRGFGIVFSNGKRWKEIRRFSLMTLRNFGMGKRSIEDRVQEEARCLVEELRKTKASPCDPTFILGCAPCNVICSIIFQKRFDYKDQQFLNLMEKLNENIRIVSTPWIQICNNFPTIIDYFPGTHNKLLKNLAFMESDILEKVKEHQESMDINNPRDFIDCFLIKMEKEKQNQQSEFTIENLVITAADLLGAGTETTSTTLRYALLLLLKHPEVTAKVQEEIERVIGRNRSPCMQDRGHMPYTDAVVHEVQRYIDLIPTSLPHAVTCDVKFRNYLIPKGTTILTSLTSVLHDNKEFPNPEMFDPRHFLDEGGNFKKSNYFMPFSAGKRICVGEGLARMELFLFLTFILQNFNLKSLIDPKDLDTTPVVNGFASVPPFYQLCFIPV

Compound	AC50
C=C1C(O)(c2ccccc2)C2CC[N+]1(C)CC2.[Cl-] (stereo not given)	inconclusive
O=c1c(-c2ccc(F)cc2)nc2cnc(N3CCNCC3)nc2n1-c1ccccc1	inconclusive
O=C(O)CNC1=NC2(CCCC2)Cc2ccccc21	inconclusive

same assay, conditions: read-out: AC50

Compound	AC50
O=c1c(-c2ccccc2)nc2cncnc2n1Cc1ccccc1Cl	7.94 µM (inconclusive)
COc1ccccc1-c1nc(NCc2cccs2)c2ccccc2n1	20 µM (inconclusive)
CC(C)OCCCN1C(=O)c2ccccc2C1C(=O)NC1CCCCC1 (stereo not given)	35.5 µM (inconclusive)
CCCCCCNC=C1C(=O)N(C)C(=O)N(C)C1=O	15.8 µM (inconclusive)
Nc1nc(-c2cccs2)cs1	3.98 µM (inconclusive) and 39.8 µM (inconclusive)
CCOc1ccc(CNC(=O)C2CC(=O)N(C3CCCC3)C2)cc1OC (stereo not given)	39.8 µM (inconclusive)
C/C(=N/O)c1ccc2cc(Br)c3ccccc3c2c1	1 µM (inconclusive)
COc1ccc(-c2nnc3n2N=C(C)CS3)cc1	25.1 µM (inconclusive)
Cc1ccccc1/C=N\NC(=O)c1csnn1	11.2 µM (inconclusive)

biological target: Cytochrome P450 2C9 (Homo sapiens, UniProt P11712); conditions: not given
Sequence (P11712 whole entry): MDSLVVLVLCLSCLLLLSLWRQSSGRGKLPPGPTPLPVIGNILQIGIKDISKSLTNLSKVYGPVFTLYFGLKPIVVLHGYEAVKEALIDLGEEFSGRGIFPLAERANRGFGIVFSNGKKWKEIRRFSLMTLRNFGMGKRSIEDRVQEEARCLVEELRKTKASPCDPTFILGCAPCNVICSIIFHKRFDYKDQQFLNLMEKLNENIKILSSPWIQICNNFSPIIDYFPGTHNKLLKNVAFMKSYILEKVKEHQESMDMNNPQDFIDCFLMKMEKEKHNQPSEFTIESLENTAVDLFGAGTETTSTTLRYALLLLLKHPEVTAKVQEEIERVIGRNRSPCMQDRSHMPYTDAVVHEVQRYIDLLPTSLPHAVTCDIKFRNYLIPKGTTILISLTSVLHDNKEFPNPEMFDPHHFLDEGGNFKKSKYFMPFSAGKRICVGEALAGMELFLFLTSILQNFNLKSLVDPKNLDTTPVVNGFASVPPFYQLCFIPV

Compound	AC50
COc1ccccc1CCn1c(=O)c(C)nc2cncnc21	31.6 µM (inconclusive)
COc1ccc(C(C(=O)NC2CCCC2)N(C(=O)c2snc(-c3ccc(F)cc3)c2N)c2ccccc2)cc1 (stereo not given)	0.891 µM (inconclusive)
CCOc1cc(/C=C2\N=C(C)OC2=O)cc(Br)c1OCC(=O)OC	25.1 µM (inconclusive)
CC(C)(C)NC(=O)NC(=O)CSc1nnc2ccccn12	17.8 µM (inconclusive)
Cc1ccc(NC(=O)NNS(=O)(=O)c2ccc(Br)cc2)cc1	1 µM (inconclusive)
O=c1c(-c2ccccc2)nc2cncnc2n1Cc1ccccc1Cl	3.16 µM (inconclusive)
CC(C)OCCCN1C(=O)c2ccccc2C1C(=O)NC1CCCCC1 (stereo not given)	7.08 µM (inconclusive)
CCCCCCNC=C1C(=O)N(C)C(=O)N(C)C1=O	14.1 µM (inconclusive)
CCn1c(SCC(=O)NC2CCCc3ccccc32)nnc1-c1cccs1 (stereo not given)	4.47 µM (inconclusive)
O=C(Nc1cccc(-c2cnc3ccccc3n2)c1)c1ccc(Cl)cc1	1.78 µM (inconclusive)
CCOC(=O)c1cc2c(=O)n3ccccc3nc2n(CCCOC)/c1=N\C(C)=O	20 µM (inconclusive)
COc1ccc(-c2nnc3n2N=C(C)CS3)cc1	20 µM (inconclusive)

tested on: not listed separately; experiment: cytotoxicity toward NIH3T3 fibroblasts, dose response, counter-screen, cell-based, ATP luminescence, mouse fibroblasts (AID 2010); format: functional; conditions: not given;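 also: cells exposed to compound for about 90 hours before reading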

Compound	EC50
CN(C)CCn1c(=O)n(Cc2ccco2)c(=O)c2c3c(sc21)CCCCC3	> 60 µM (not active)
Cc1cccc(CN2CCN(CCCc3ccccc3)CC2)c1	> 60 µM (not active)
COc1cc(-c2cc(-c3ccccc3)nc(SCC(=O)Nc3nccs3)c2C#N)cc(OC)c1OC	> 30 µM (not active)
COc1cccc(C2c3c(C)nn(-c4ccc([N+](=O)[O-])cc4)c3N=C3C(=O)Nc4ccccc4N32)c1 (stereo not given)	> 60 µM (not active)
c1ccc(CCn2nnnc2C(c2cccnc2)N2CCN(c3nc4ccccc4s3)CC2)cc1 (stereo not given)	31.2 µM (active)
C[C@@H](C(=O)NC1CCN(Cc2ccccc2)CC1)N1C(=O)N2CCc3c([nH]c4ccccc34)[C@@]2(C)C1=O	> 60 µM (not active)
O=C(Nc1nc(-c2ccccc2)cs1)C1CCCN(S(=O)(=O)c2cccc([N+](=O)[O-])c2)C1 (stereo not given)	> 60 µM (not active)
CCOC(=O)C1=C(c2ccccc2)Nc2ncnn2C1c1ccc(OC)c(OC)c1OC (stereo not given)	> 60 µM (not active)
Fc1ccc(COc2cccc(CNCc3ccncc3)c2)cc1	> 60 µM (not active)
Oc1c(N=NC(S)=Nc2ccccc2F)c2ccccc2n1Cc1ccc(Cl)cc1	5.85 µM (active)
COc1ccccc1N(CC(O)Cn1c2ccccc2c2ccccc21)S(=O)(=O)c1ccccc1 (stereo not given)	> 60 µM (not active)
Cc1cc(C)c2cc(CN(Cc3cccnc3)C(=O)c3ccc(F)cc3)c(Cl)nc2c1	5.07 µM (active)
COc1ccc(CCn2c(-c3cc([N+](=O)[O-])cc([N+](=O)[O-])c3)nc3nc4ccccc4nc32)cc1	> 60 µM (not active)
COc1ccc(-c2csc3ncnc(N4CCN(S(=O)(=O)c5cccc(Br)c5)CC4)c23)cc1	> 60 µM (not active)
Cc1cc(C)c(C#N)c(SCC(=O)C(C)(C)C)n1	> 60 µM (not active)
COc1ccc([C@H]2/C=C\CN(S(=O)(=O)c3ccc4ccccc4c3)[C@@H](C)C(=O)N2Cc2ccc(F)cc2)cc1	> 60 µM (not active)

tested on: Streptococcus; experiment: Group A Streptococcus viability loss, dose response, counter-screen for streptokinase expression inhibitor project, luminescence, BacTiterGlo (AID 1915); format: functional, organism-based; conditions: not given;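 also: potency for reduction of bacterial viability or growth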

Compound	EC50
COc1ccc(/C=C/c2ccc3cccc(O)c3n2)c(OC)c1OC	6.25 µM (active)

biological target: Cytochrome P450 3A4 (Homo sapiens, UniProt P08684); conditions: not given;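 also: CYP3A4 tested as one member of a cytochrome P450 panel screen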
Sequence (P08684 whole entry): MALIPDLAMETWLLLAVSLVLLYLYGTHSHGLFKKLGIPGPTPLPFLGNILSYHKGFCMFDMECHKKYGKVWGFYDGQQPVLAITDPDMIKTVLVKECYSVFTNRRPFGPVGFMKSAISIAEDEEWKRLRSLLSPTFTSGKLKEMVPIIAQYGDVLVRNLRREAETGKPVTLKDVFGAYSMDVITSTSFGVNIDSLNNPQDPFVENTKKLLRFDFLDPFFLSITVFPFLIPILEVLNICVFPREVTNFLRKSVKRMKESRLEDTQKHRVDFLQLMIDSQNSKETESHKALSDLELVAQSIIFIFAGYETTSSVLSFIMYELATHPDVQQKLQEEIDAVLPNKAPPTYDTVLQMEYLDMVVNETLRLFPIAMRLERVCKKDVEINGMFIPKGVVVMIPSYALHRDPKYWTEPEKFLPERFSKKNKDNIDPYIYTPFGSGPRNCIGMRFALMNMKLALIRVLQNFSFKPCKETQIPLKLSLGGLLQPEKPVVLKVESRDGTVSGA

Compound	AC50
CC12CS(=O)(=O)CC1SC(=S)N2c1ccccn1 (stereo not given)	17.8 µM (inconclusive)
CN(C)CCn1c(=O)n(Cc2ccco2)c(=O)c2c3c(sc21)CCCCC3	12.6 µM (inconclusive)
CC(C)(C)CC(=O)NC(=S)Nc1ccccc1C(F)(F)F	22.4 µM (inconclusive)
CO[C@@H]1COC(=O)C/C=C\[C@@H](C)COC(=O)[C@H](COCc2ccccc2)NC(=O)C/C=C\[C@H]1C	3.98 µM (inconclusive)
COc1ccc([C@@H](Nc2ccccn2)c2cc(C(C)(C)C)cc(C(C)(C)C)c2O)cc1	2 µM (inconclusive)
Cc1cccc(N(CC(=O)NCCSCc2ccco2)S(=O)(=O)c2ccccc2)c1	3.55 µM (inconclusive)
CCC1=NN(C(=O)CCc2ccccc2)C(O)(C(F)(F)F)C1 (stereo not given)	15.8 µM (inconclusive)
C=C1C(O)(c2ccccc2)C2CC[N+]1(C)CC2.[Cl-] (stereo not given)	3.16 µM (inconclusive)
O=c1c(-c2ccc(F)cc2)nc2cnc(N3CCNCC3)nc2n1-c1ccccc1	25.1 µM (inconclusive)
O=C(Nc1cccc(-c2cnc3ccccc3n2)c1)c1ccc(Cl)cc1	3.55 µM (inconclusive)
Nc1nc(-c2cccs2)cs1	3.98 µM (inconclusive) and 25.1 µM (inconclusive)
CCOc1ccc(CNC(=O)C2CC(=O)N(C3CCCC3)C2)cc1OC (stereo not given)	25.1 µM (inconclusive)
Cc1nc2ncnn2c(C)c1CCC(=O)Nc1ccc(S(=O)(=O)N2CCCCCC2)cc1	39.8 µM (inconclusive)
COc1ccc(-c2nc3cnc(OCc4ccccc4)nc3n(CCC#N)c2=O)cc1	10 µM (inconclusive)
CC(NC(=O)C1(C)CC1(Br)Br)C(C)(C)C (stereo not given)	14.1 µM (inconclusive)
c1ccc2sc(C3(N4CCCCC4)CCCCC3)cc2c1	15.8 µM (inconclusive) and 25.1 µM (inconclusive)
NC[C@H](O)c1cc(O)c(O)cc1F	31.6 µM (inconclusive)

tested on: H4; experiment: Luminescence Cell-Based Dose Response HTS to Identify Activators of 5'UTR Stem-Loop Driven Prion Protein mRNA Translation in H4 Neuroglioblastoma Cells. [Related pubchem assays: 1829 (Project Summary), 1814 (Primary HTS)]; format: functional; conditions: Homo sapiens

Compound	EC50
CCCc1ccc2oc(C(=O)N3CCC[C@H]3CO)c(C)c2c1	> 120 µM (not active)

biological target: T1, Corticotropin-releasing factor receptor 2/Corticotropin-releasing factor-binding protein (Homo sapiens, UniProt P24387+Q13324); experiment: activators of CRF receptor 2 with binding protein – uHTS hits, confirmation (AID 602473); format: functional; conditions: read-out: EC50_Mean
T1 sequence (Q13324 whole entry): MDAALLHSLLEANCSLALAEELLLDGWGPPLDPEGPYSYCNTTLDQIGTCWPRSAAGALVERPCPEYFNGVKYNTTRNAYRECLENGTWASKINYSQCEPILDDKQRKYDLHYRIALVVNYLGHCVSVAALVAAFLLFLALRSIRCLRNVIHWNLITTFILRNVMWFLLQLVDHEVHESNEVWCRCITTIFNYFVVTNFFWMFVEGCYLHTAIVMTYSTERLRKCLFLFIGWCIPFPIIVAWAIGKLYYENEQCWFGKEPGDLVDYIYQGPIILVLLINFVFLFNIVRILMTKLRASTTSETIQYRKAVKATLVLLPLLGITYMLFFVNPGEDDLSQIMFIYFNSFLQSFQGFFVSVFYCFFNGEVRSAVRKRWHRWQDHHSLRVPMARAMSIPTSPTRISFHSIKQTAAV
T1 sequence (P24387 whole entry): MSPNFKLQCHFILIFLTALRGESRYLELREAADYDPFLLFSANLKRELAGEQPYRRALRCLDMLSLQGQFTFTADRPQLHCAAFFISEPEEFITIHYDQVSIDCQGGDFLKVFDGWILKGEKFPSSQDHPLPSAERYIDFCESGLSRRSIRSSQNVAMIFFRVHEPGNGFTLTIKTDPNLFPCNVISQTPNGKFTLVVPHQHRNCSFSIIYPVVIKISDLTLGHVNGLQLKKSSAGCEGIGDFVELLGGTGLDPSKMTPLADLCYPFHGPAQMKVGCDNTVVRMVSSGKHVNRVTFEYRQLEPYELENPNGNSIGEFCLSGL

Compound	EC50
Cc1ccc2[nH]c(C(=O)N/N=C/c3ccccc3C(=O)O)c(-c3ccccc3)c2c1	5.26 µM (active)

tested on: Streptococcus sp. 'group A'; experiment: growth inhibition of control SK(-) GAS strain, dose response, counter-screen for streptokinase expression inhibitor project, luminescence, kanamycin, BacTiterGlo, confirmation (AID 1900); format: functional, organism-based; conditions: not given

Compound	EC50
COc1ccc(/C=C/c2ccc3cccc(O)c3n2)c(OC)c1OC	4.85 µM (active)

tested on: not listed separately; experiment: inhibitors of intracellular T. cruzi replication, confirmation, NIH3T3 host cells, beta-gal luminescence (AID 2044); format: functional, cell-based; conditions: not given;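 also: intracellular parasites grown in NIH/3T3 mouse fibroblasts as host cells; luminescent beta-galactosidase reporter signal from transgenic T. cruzi replicating inside host cells; inhibitors lower the luminescence signal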

Compound	EC50
CN(C)CCn1c(=O)n(Cc2ccco2)c(=O)c2c3c(sc21)CCCCC3	0.196 µM (active)
Cc1cccc(CN2CCN(CCCc3ccccc3)CC2)c1	0.478 µM (active)
COc1cc(-c2cc(-c3ccccc3)nc(SCC(=O)Nc3nccs3)c2C#N)cc(OC)c1OC	1.72 µM (active)
COc1cccc(C2c3c(C)nn(-c4ccc([N+](=O)[O-])cc4)c3N=C3C(=O)Nc4ccccc4N32)c1 (stereo not given)	1.87 µM (active)
c1ccc(CCn2nnnc2C(c2cccnc2)N2CCN(c3nc4ccccc4s3)CC2)cc1 (stereo not given)	0.244 µM (active)
C[C@@H](C(=O)NC1CCN(Cc2ccccc2)CC1)N1C(=O)N2CCc3c([nH]c4ccccc34)[C@@]2(C)C1=O	0.299 µM (active)
O=C(Nc1nc(-c2ccccc2)cs1)C1CCCN(S(=O)(=O)c2cccc([N+](=O)[O-])c2)C1 (stereo not given)	0.173 µM (active)
CCOC(=O)C1=C(c2ccccc2)Nc2ncnn2C1c1ccc(OC)c(OC)c1OC (stereo not given)	1.84 µM (active)
Fc1ccc(COc2cccc(CNCc3ccncc3)c2)cc1	6.99 µM (active)
Oc1c(N=NC(S)=Nc2ccccc2F)c2ccccc2n1Cc1ccc(Cl)cc1	1.06 µM (active)
COc1ccccc1N(CC(O)Cn1c2ccccc2c2ccccc21)S(=O)(=O)c1ccccc1 (stereo not given)	2.21 µM (active)
Cc1cc(C)c2cc(CN(Cc3cccnc3)C(=O)c3ccc(F)cc3)c(Cl)nc2c1	1.08 µM (active)
COc1ccc(CCn2c(-c3cc([N+](=O)[O-])cc([N+](=O)[O-])c3)nc3nc4ccccc4nc32)cc1	0.157 µM (active)
COc1ccc(-c2csc3ncnc(N4CCN(S(=O)(=O)c5cccc(Br)c5)CC4)c23)cc1	1.71 µM (active)
Cc1cc(C)c(C#N)c(SCC(=O)C(C)(C)C)n1	1.96 µM (active)
COc1ccc([C@H]2/C=C\CN(S(=O)(=O)c3ccc4ccccc4c3)[C@@H](C)C(=O)N2Cc2ccc(F)cc2)cc1	2.03 µM (active)

tested on: not listed separately; experiment: Luminescence Cell-Based Dose Response HTS to Identify Activators of Luciferase Translation or Activity in H4 […] Cells. [Related pubchem assays: 1829 (Project Summary), 1814 (Primary HTS)]; format: functional; conditions: not given

Compound	EC50
CCCc1ccc2oc(C(=O)N3CCC[C@H]3CO)c(C)c2c1	1.11 µM (active)
O=C(Nc1ccc(N2CCOCC2)c(Cl)c1)c1ccc(Br)o1	0.113 µM (active)
O=C(Cc1ccccc1)NC(=S)Nc1ccc2oc(-c3ccccc3F)nc2c1	3.01 µM (active)
